# Data from patent US20160101048A1, “+L-CARNOSINE ZINC FORMULATIONS AND METHODS OF USE” (priority 2014, published 2016).
# Columns and labels:
# [1] = Particle size distribution of polymeric L-carnosine zinc; format: physicochemical; settings: L-carnosine zinc used in Comparative Example 1
# Procedure: Step 2) Polymeric L-carnosine zinc with a particle size range of about 0.1 micron to about 85 microns, with a particle distribution such that 90% of the particles are 24.925 microns or smaller, 50% are 5.664 microns or smaller, and 10% are 0.826 or smaller, and the mean diameter was 9.878 microns was added to the hydrogel prepared in Step 1 to produce a composite polymeric hydrogel consisting of 150 mg L-carnosine zinc suspended in 5 ml of hydrogel.
# [2] = system: ulcer tissue; settings: chelate versus simple mixture; cited from earlier work
substance,measurement,setting,value
N-(3-aminopropionyl)-L-histidinatozinc [L-carnosine zinc],mean diameter,[1],9.878 microns
same,"particle distribution, 10% of the particles are this size or smaller",[1],≤ 0.826
same,"particle distribution, 50% of the particles are this size or smaller",[1],≤ 5.664 microns
same,"particle distribution, 90% of the particles are this size or smaller",[1],≤ 24.925 microns
same,effectiveness compared with co-administration of a zinc salt together with L-carnosine,[2],more effective than the co-administration of a zinc salt together with L-carnosine in a simple mixture
